The values that follow come from PubChem BioAssay (NCI).

Experiment in all cases: DTP human tumour cell line panel, 48 h
Experiment [1] concerns TK-10 renal.
For experiment [2], the system named is ACHN renal.
The subject of experiment [3] is K-562 leukemia.
Experiment [4] relates to HT29 colon.
Experiment [5] concerns HCT-15 colon.

Molecules are shown by their SMILES.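 In this assay, cells in 96-well plates receive the compound at five concentrations for 48 hours. Endpoints are linearly interpolated between the surrounding concentrations. TGI: concentration producing complete growth inhibition.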 Where a SMILES comes first, the peptide text is derived from it.

As usually defined, the TGI is the concentration at which net growth stops. High values mean lower sensitivity of the cells, low ones greater sensitivity of the cells.

For `CC12CCC(C(=O)OC1=O)C2(C)C` (stereo not drawn), the concentration for total growth inhibition (TGI) in experiment [1], in experiment [2], in experiment [3], in experiment [4] and in experiment [5] was above 100 µM each time.
On to `Cc1ccc2nc(-c3ccc(N)c(I)c3)sc2c1`, for which the TGI in experiment [1] is 17.7 µM; in experiment [2] it was above 100 µM; in experiment [3] it was above 100 µM; in experiment [4] it was 34.8 µM; in experiment [5], 23.2 µM.
Regarding `CCOC(=O)C1=C(Nc2cccc(OC)c2)OCC1=O`, the TGI in experiment [1], in experiment [2], in experiment [3], in experiment [4] and in experiment [5] was above 100 µM throughout.
Turning to `CN(Nc1cc(=O)[nH]c(=O)[nH]1)c1ccccc1`, the concentration for total growth inhibition (TGI) in experiment [1], in experiment [2], in experiment [3] and in experiment [4] was above 100 µM in each case.
For the compound `COc1ccc2c(c1)CN1C(=N2)CSC1c1cc([N+](=O)[O-])ccc1Cl` (stereo not drawn), the concentration for total growth inhibition (TGI) in experiment [1] is above 100 µM; in experiment [2] it was above 100 µM; in experiment [3], above 100 µM; in experiment [4], 75.8 µM; in experiment [5], above 100 µM.
In the case of `CC1=CC(C2/C(=N/O)C=C(C)CC2(C)C)C(O)C(C)(C)C1` (stereo not drawn), the total growth inhibition concentration (TGI) in experiment [1] is 35.2 µM; in experiment [2], 34 µM; in experiment [3], 32.1 µM; in experiment [4], 29.3 µM; in experiment [5] it was 33.6 µM.
Taken in the same sequence, the figures for `O=C(O)c1ccc(NNc2cc(=O)[nH]c(=O)[nH]2)cc1` were above 100 µM, above 100 µM, above 100 µM, above 100 µM and above 100 µM.
For the compound `CN1CCOC1(C)CO` (stereo not drawn), the TGI in experiment [1], in experiment [2], in experiment [3], in experiment [4] and in experiment [5] was above 100 µM throughout.
In the case of `COC(=O)C1=C(C)NC(C)=C(C(=O)OC)C1c1ccc(/[N+]([O-])=C/c2ccccc2)cc1`, the TGI in experiment [1] is above 100 µM; in experiment [2], 32.7 µM; in experiment [3], above 100 µM; in experiment [4] it was above 100 µM; in experiment [5] it was above 100 µM.
For the compound `C/C(=N\Nc1cc(CN2CCCC2)c(-c2ccc(Cl)cc2)nn1)C(=O)O`, the TGI in experiment [1], in experiment [2], in experiment [3], in experiment [4] and in experiment [5] was above 100 µM each time.
Take `CN(C)C1=Nc2ccccc2C(=S)N2CSCC12` (stereo not drawn): the TGI in experiment [1], in experiment [2], in experiment [3], in experiment [4] and in experiment [5] was above 100 µM each time.
Take `CCC(C)C(NC(=O)C(CCCCN)NC(=O)C(NC(=O)C(CCC(N)=O)NC(=O)C(N)CCCNC(=N)N)C(C)CC)C(=O)NC(Cc1c[nH]c2ccccc12)C(=O)NC(Cc1ccccc1)C(=O)NC(CCC(N)=O)C(=O)NC(CC(N)=O)C(=O)NC(CCCNC(=N)N)C(=O)NC(CCCNC(=N)N)C(=O)NC(CCSC)C(=O)NC(CCCCN)C(=O)NC(Cc1c[nH]c2ccccc12)C(=O)NC(CCCCN)C(=O)NC(CCCCN)C(=O)N1CCCC1C(=O)NC(C)C(=O)NC(CCCCN)C(=O)NC(CCCNC(=N)N)C(=O)NC(CCCCN)C(=O)NC(CC(C)C)C(=O)NC(Cc1ccccc1)C(=O)NCC(=O)O` (stereo not drawn) (H-RQIKIWFQNRRMKWKKPAKRKLFG-OH; configuration not given here): the TGI in experiment [1], in experiment [2], in experiment [3], in experiment [4] and in experiment [5] was above 25 µM each time.
For the compound `COc1ccc2c(c1)CC[C@@H]1[C@@H]2CC[C@]2(C)C(=O)/C(=C/c3ccc(OC)c(OC)c3)C[C@@H]12`, the TGI in experiment [1], in experiment [2] and in experiment [5] was above 100 µM in each case.
For `N#Cc1c(-c2ccccc2)[nH]c2ccccc2c1=O`, the TGI is 97.8 µM in experiment [1]; above 100 µM in experiment [2]; above 100 µM in experiment [3]; above 100 µM in experiment [4]; above 100 µM in experiment [5].
As to `CC(=O)c1csc2c1C(=O)c1scc(C(C)=O)c1C2=O`, the TGI worked out at 5.82 µM in experiment [1]; 3.24 µM in experiment [2]; 4.35 µM in experiment [3]; 4.61 µM in experiment [4]; 3.2 µM in experiment [5].
Taken in the same sequence, the figures for `CCC1c2[nH]c3ccccc3c2C[C@H]2C(=O)NC(COC(C)(C)C)C(=O)N12` (stereo partly drawn) were above 100 µM, above 100 µM, above 100 µM, above 100 µM and above 100 µM.
`CC(=O)Oc1ccccc1-c1cc2ccccc2oc1=O`: the total growth inhibition concentration (TGI) in experiment [2], in experiment [3], in experiment [4] and in experiment [5] was above 100 µM throughout.
As for `CSC1=C(SC)SC(=C2SC3=C(SC(=C4SCCS4)S3)S2)S1`, the TGI in experiment [1], in experiment [2], in experiment [4] and in experiment [5] was above 100 µM throughout.
Regarding `CC(C)CC1[C@@H](OCc2ccccc2)COS(=O)N1Cc1ccccc1` (stereo partly drawn), the TGI was above 100 µM in experiment [1]; 96.2 µM in experiment [2]; above 100 µM in experiment [3]; 40.2 µM in experiment [4]; above 100 µM in experiment [5].
With `Cc1ccc(S(=O)(=O)C2=Cc3ccc(C(F)(F)F)cc3C2(O)c2cccc(C(F)(F)F)c2)cc1` (stereo not drawn), the TGI came out at 5.96 µM in experiment [1]; 7.64 µM in experiment [2]; 6.34 µM in experiment [3]; 5.14 µM in experiment [4]; 4.27 µM in experiment [5].
Taken in the same sequence, the figures for `C=CCNC1=C2C[C@@H](C)C[C@@H](OC)[C@@H](OC(=O)CCCN)[C@H](C)/C=C(\C)[C@@H](OC(N)=O)[C@H](OC)/C=C\C=C(/C)C(=O)NC(=CC1=O)C2=O` were 33.4 µM, 38.9 µM, above 100 µM, 21.4 µM and 41.2 µM.
Regarding `CCN(CC)CCn1nc(N)c2nc3cc(Cl)ccc3nc21`, the TGI in experiment [1], in experiment [2], in experiment [3], in experiment [4] and in experiment [5] was above 100 µM throughout.
Turning to `CO[C@H]1[C@@H](O)[C@@H](C)O[C@@H](O[C@H]2CC[C@@]3(C)[C@H](CC[C@@H]4[C@@H]3CC[C@]3(C)[C@@H](C5=CC(=O)OC5)[C@@H](OC(C)=O)C[C@]43O)C2)[C@@H]1O`, the TGI in experiment [1] was 0.052 µM; in experiment [2], 0.0575 µM; in experiment [3], 0.756 µM; in experiment [4], 0.209 µM; in experiment [5] it was 0.292 µM.
Take `Cn1ccc(C(=O)NCCOCCNC(=O)c2ccn(C)c(=O)c2O)c(O)c1=O`: the total growth inhibition concentration (TGI) in experiment [1], in experiment [2], in experiment [4] and in experiment [5] was above 100 µM each time.
Regarding `COc1ccc2c(c1)CCc1c-2[nH]c2ccc(OC)cc12`, the TGI in experiment [1], in experiment [2], in experiment [3], in experiment [4] and in experiment [5] was above 100 µM in each case.
As for `CCN(CC)/C(Cl)=C(Cl)\C(=C1\Nc2ccc(OC)cc21)[N+](=O)[O-]`, the TGI in experiment [1], in experiment [2], in experiment [3], in experiment [4] and in experiment [5] was above 100 µM in each case.
As to `O=C(C(=O)N1CCc2ccccc21)c1c[nH]c2ccccc12`, the TGI in experiment [1], in experiment [2], in experiment [3], in experiment [4] and in experiment [5] was above 10 µM in each case.
As for `COC(CN(C(=O)c1ccccc1)C1CCC2(SCCS2)c2[nH]c3ccccc3c21)OC` (stereo not drawn), the TGI in experiment [1], in experiment [2], in experiment [3], in experiment [4] and in experiment [5] was above 100 µM in each case.
For `CCOC(=O)CC1c2ccc(O)cc2OC(=O)C1c1ccc([N+](=O)[O-])cc1` (stereo not drawn), the TGI in experiment [1] was 75.3 µM; in experiment [2], 71.7 µM; in experiment [3] it was above 100 µM; in experiment [4], above 100 µM; in experiment [5], above 100 µM.
On to `Clc1ccc(Cl)c(Nc2ccnc(SCc3ccccc3)n2)c1`, for which the TGI in experiment [1], in experiment [2], in experiment [3], in experiment [4] and in experiment [5] was above 100 µM throughout.
With `CC1=C(Br)C(Br)=C(C)S1=O`, the TGI was 48.5 µM in experiment [1]; 90.9 µM in experiment [2]; above 100 µM in experiment [3]; 45.4 µM in experiment [4]; above 100 µM in experiment [5].
As for `CC(C)=CCS(=O)c1ccccc1NC1=CC(=O)CC(C)(C)C1` (stereo not drawn), the TGI in experiment [1] was above 100 µM; in experiment [2] it was above 100 µM; in experiment [3], above 100 µM; in experiment [4], above 100 µM; in experiment [5], 28.7 µM.
For `Cc1cccc2c1[C@]13OC(C)[C@]4(C)CC5OC(=O)[C@@]1(C)[C@@H]5[C@]34C(=O)O2` (stereo partly drawn), the TGI in experiment [1], in experiment [2], in experiment [3], in experiment [4] and in experiment [5] was above 100 µM in each case.
As for `COc1ccc2c3c1O[C@H]1C(O)CCC4(O)[C@@H](C2)NCC[C@]314` (stereo partly drawn), the concentration for total growth inhibition (TGI) in experiment [1], in experiment [2], in experiment [3], in experiment [4] and in experiment [5] was above 100 µM in each case.
With `Cc1cc(C)cc(C(=N)c2ccccc2Cc2cccc3ccccc23)c1`, the concentration for total growth inhibition (TGI) in experiment [1] was 94.6 µM; in experiment [2], 31.2 µM; in experiment [3], 48.5 µM; in experiment [4], 24.5 µM; in experiment [5], 32.2 µM.
Taken in the same sequence, the figures for `COc1cccc(CCn2c(N)c(-c3ccccc3)c3ccc([N+](=O)[O-])cc3c2=O)c1` were 5.31 µM, 15 µM, 21 µM, 27.4 µM and 27.9 µM.
The matching figures for `CCC1OC2C(CC=C(C)C)=C3OC(C)(O)C(C)(CC)C(OC(=O)c4ccccc4)C3=C3OC(=O)C=C1C32` (stereo not drawn): above 100 µM, above 100 µM, above 100 µM, above 100 µM and above 100 µM.
The matching figures for `O=C(CC(c1ccccc1)N1CCCCC1)c1ccccc1` (stereo not drawn): 27.3 µM, 30.7 µM, 8.6 µM, 29.5 µM and 36.6 µM.
On to `O=C(O)c1nc(-c2ccccn2)c(-c2ccccn2)nc1C(=O)O`, for which the TGI in experiment [1] was 15.3 µM; in experiment [2], 7.35 µM; in experiment [3], above 100 µM; in experiment [4], 8.54 µM; in experiment [5], above 42.5 µM.
For the compound `C[C@H]1[C@H](C)CC[C@]2(C)CC[C@]3(C)C(=C[C@@H](O)[C@@H]4[C@@]5(C)[C@H](O)[C@@H](O)[C@H](O)C(C)(C)[C@@H]5CC[C@]43C)[C@H]12`, the TGI in experiment [2], in experiment [3], in experiment [4] and in experiment [5] was above 100 µM throughout.
In the case of `Cc1cccc2c1Oc1cc(Cl)ccc1C2NC(=O)CCN1CCOCC1` (stereo not drawn), the TGI in experiment [1], in experiment [3], in experiment [4] and in experiment [5] was above 100 µM each time.
On to `CC(=O)N(C(=O)CC(=O)N/N=C\c1ccc(Br)c(N(CCC#N)CCC#N)c1)c1ccc(Cl)cc1`, for which the TGI in experiment [1], in experiment [2], in experiment [3] and in experiment [5] was above 100 µM each time.
Turning to `C[C@]12CCC(=O)C=C1CC[C@@H]1C2CC[C@]2(C)c3nn(-c4ccc(F)cc4)nc3CC12` (stereo partly drawn), the TGI in experiment [1], in experiment [2], in experiment [3] and in experiment [4] was above 100 µM throughout.
Regarding `CNC(=S)N/N=C(C)\C(=N/NC(=S)NC)c1ccccc1`, the TGI in experiment [1], in experiment [2] and in experiment [5] was above 100 µM each time.
